Results reported in ChEMBL document CHEMBL1201862, “PubChem BioAssay data set” (2004).
Activity calls are given as the source filed them.

Legend:
[1] = target: T1, Replicative DNA helicase DnaB (Mycobacterium tuberculosis, UniProt P9WMR3); test: DnaB intein splicing inhibitors, dose response, biochemical, cell-free fluorescence (AID 449749); type: functional
T1 sequence (P9WMR3 whole entry): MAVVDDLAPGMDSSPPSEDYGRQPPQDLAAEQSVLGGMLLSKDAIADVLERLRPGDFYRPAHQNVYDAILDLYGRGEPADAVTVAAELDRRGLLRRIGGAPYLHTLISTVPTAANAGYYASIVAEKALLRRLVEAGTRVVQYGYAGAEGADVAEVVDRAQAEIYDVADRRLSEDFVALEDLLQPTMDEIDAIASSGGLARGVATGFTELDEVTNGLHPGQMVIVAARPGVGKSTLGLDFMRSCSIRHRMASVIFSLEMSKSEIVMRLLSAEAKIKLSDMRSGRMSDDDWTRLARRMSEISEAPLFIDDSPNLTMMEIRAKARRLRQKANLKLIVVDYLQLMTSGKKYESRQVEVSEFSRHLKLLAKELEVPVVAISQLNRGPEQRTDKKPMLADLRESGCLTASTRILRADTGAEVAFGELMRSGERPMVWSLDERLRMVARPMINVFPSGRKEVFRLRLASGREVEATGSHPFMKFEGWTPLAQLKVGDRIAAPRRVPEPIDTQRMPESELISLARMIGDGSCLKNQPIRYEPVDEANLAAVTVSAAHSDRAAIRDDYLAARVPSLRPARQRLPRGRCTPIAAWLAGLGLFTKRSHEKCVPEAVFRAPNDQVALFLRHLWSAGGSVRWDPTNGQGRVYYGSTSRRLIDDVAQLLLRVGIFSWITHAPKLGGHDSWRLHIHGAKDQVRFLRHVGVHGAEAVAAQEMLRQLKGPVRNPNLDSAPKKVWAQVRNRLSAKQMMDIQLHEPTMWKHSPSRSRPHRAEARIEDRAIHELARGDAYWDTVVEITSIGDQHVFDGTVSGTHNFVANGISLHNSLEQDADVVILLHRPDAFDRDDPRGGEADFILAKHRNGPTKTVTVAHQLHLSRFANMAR

Protein RecA = target: T2, Protein RecA (Mycobacterium tuberculosis, UniProt P9WHJ3); test: Fluorescence Cell-Free Homogeneous Dose Retest to Identify Inhibitors of RecA-Intein Splicing Activity. [Related pubchem assays (depositor defined):AID2097, AID2223, AID489010, AID492950]; type: functional
T2 sequence (P9WHJ3 whole entry): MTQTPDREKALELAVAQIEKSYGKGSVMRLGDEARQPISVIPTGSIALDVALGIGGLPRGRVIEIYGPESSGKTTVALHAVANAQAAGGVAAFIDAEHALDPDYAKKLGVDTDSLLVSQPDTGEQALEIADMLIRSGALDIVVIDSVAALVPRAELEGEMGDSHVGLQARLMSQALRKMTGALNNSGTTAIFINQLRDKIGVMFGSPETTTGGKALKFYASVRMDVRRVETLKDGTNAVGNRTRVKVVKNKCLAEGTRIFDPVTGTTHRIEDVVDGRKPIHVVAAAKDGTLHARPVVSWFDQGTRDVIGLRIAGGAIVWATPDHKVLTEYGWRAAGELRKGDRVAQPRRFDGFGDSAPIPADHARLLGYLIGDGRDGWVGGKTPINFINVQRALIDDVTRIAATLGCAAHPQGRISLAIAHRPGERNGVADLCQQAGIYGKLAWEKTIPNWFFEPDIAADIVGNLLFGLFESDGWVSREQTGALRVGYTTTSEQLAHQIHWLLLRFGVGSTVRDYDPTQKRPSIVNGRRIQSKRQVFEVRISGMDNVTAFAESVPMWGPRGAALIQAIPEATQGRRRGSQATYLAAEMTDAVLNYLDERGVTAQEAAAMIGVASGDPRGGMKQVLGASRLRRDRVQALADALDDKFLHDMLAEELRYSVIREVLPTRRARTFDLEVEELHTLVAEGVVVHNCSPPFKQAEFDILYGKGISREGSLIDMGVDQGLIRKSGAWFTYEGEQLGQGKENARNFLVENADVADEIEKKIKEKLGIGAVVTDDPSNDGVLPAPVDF

[2] = target: T3, Heat shock factor protein 1 (Mus musculus, UniProt P38532); test: decrease of HSF1-responsive luciferase luminescence – cell-based, NIH3T3, dose retest, confirmation (AID 2382); type: functional;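 also: NIH3T3 fibroblasts with HSF1-driven luciferase reporter stressed by proteasome inhibitor MG132; luminescence from HSF1-driven luciferase expression after 8 hours of MG132 stress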
T3 sequence (P38532 whole entry): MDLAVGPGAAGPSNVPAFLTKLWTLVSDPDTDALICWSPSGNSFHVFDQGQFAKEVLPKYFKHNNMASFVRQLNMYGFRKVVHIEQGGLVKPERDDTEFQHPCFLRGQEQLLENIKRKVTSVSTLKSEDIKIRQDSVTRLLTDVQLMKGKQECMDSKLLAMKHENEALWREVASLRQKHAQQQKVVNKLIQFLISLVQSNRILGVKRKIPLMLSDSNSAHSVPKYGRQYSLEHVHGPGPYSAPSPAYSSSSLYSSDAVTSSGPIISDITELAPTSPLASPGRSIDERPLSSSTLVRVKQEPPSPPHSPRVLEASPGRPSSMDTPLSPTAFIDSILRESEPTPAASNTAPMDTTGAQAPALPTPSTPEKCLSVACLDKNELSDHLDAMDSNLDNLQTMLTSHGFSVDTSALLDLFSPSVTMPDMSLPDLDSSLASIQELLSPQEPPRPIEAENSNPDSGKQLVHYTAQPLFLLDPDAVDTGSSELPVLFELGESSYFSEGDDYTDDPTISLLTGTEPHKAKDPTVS

[3] = test system: Streptococcus sp. 'group A'; test: Streptococcus pyogenes SK(-)GAS viability under kanamycin – luminescence, BacTiterGlo, confirmation, counter-screen for streptokinase expression inhibitor project, dose response (AID 1900); type: functional, organism-based
Streptococcus = test: GAS UMAA2166 growth inhibition – luminescence, BacTiterGlo, counter-screen for streptokinase expression inhibitor project, dose response (AID 1915); type: functional, organism-based;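 also: potency for reduction of bacterial viability or growth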
[4] = Luminescence Cell-Based Dose Retest to Confirm Inhibitors of Cancer Stem Cells. [Related pubchem assays (depositor defined):AID2717, AID2721]; type: functional; conditions: Homo sapiens
[5] = target: T4, Corticotropin-releasing factor receptor 2/Corticotropin-releasing factor-binding protein (Homo sapiens, UniProt P24387+Q13324); test: activators of CRF receptor 2 with binding protein – uHTS hits, confirmation (AID 602473); type: functional; conditions: read-out: EC50_Mean
T4 sequence (Q13324 whole entry): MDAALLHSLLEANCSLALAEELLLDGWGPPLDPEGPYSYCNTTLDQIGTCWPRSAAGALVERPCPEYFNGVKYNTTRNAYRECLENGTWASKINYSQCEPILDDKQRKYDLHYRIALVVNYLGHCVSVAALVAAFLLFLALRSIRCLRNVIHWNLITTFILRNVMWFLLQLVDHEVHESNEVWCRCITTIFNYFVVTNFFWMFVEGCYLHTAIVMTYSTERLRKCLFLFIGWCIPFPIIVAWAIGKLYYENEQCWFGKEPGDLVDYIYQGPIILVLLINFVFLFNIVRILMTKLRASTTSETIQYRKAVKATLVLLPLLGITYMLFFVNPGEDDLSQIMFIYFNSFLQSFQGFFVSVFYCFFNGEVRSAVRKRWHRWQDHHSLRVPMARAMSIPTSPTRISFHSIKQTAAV
T4 sequence (P24387 whole entry): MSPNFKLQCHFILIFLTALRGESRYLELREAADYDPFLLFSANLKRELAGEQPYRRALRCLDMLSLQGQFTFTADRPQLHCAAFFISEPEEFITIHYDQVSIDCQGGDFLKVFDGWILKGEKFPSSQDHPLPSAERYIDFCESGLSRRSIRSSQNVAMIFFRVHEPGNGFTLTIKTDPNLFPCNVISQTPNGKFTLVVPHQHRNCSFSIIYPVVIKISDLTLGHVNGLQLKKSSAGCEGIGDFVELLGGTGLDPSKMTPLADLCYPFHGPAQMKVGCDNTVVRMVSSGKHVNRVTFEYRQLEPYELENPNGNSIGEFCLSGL

Cytochrome P450 2C19 = Cytochrome P450 2C19 (Homo sapiens, UniProt P33261); test: Cytochrome panel assay with activity outcomes. Panel member name: p450-cyp2c19 Compounds with AC50 equal or less than 10 uM are considered active; type: functional; conditions: read-out: AC50
Cytochrome P450 1A2 = target: T5, Cytochrome P450 1A2 (Homo sapiens, UniProt P05177);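 also: PubChem cytochrome P450 panel assay, CYP1A2 panel member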
T5 sequence (P05177 whole entry): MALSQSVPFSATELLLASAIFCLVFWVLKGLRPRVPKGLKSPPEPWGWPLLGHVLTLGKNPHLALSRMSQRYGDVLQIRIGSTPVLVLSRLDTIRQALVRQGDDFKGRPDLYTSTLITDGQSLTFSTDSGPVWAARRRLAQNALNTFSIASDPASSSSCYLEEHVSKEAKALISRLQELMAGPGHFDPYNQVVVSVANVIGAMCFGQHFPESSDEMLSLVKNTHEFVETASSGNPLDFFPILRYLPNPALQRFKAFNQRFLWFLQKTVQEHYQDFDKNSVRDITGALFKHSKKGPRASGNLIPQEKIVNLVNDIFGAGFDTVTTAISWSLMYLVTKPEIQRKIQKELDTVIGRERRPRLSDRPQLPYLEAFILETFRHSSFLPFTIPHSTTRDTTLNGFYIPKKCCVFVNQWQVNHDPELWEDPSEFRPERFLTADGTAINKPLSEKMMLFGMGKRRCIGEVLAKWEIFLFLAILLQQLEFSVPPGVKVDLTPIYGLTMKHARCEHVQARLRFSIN

INS1 = test: INS-1E survival protection against cytokine death – cell-based, luminescence, retest, dose response (AID 449756); type: functional; conditions: Rattus norvegicus;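 also: cell death triggered by IL-1 beta plus TNF-alpha plus IFN-gamma mixture; protective hits raise ATP signal compared with cytokine alone wells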

Cytochrome P450 2C19, sequence (P33261 whole entry): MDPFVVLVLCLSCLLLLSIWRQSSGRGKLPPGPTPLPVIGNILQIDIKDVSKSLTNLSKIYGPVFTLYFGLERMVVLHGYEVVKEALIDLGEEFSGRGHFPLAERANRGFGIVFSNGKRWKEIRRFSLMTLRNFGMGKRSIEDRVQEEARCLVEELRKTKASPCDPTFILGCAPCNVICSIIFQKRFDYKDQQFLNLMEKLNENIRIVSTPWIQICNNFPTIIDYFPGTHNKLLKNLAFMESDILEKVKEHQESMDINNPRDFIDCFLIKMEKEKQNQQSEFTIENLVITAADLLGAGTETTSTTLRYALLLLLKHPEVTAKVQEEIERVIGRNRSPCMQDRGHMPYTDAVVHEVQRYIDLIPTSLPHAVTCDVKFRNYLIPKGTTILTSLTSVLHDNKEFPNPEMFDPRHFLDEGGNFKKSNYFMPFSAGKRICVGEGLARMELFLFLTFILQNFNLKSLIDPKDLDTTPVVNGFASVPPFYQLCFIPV

Row | Structure (SMILES) | AC50 [1] | EC50 (Protein RecA) | EC50 [2] | also measured
1 | CC(C)c1n[nH]c2c1C(c1ccc(OC(=O)c3ccco3)cc1)C(C#N)=C(N)O2 (stereo not given) | 6.85 µM (active) | 3.02 µM (active) | – | –
2 | Cc1cc(C)nc(-n2c(C)nc3cc(Cl)ccc3c2=O)c1 | – | – | 35.9 µM (active) | –
3 | Cc1c(C)n(O)c2ccc3nonc3c12 | > 380 µM (inactive) | 3.67 µM (active) | – | –
4 | COC(=O)c1cccc(NC(S)=NCc2ccc(Cl)cc2)c1 | – | – | – | EC50 [3]: 13 µM (active); EC50 (Streptococcus): 15.8 µM (active)
5 | O=C(Nc1cccc2ncccc12)C(Cl)(Cl)Cl | – | – | > 195 µM (not active) | –
6 | CC1=NNC(=O)C1Cc1ccccc1C (stereo not given) | 0.538 µM (active) | 0.329 µM (active) | – | –
7 | Cc1nnc(SCC2=C(C(=O)O)N3C(=O)C(NC(=O)Cn4nc(C)c(Cl)c4C)C3SC2)s1 (stereo not given) | – | – | – | EC50 [3]: < 0.06 µM (active); EC50 (Streptococcus): 0.115 µM (active)
8 | O=C(NCCCN1CCCC1=O)c1cccc(N2CCCC2=O)c1 | – | – | > 195 µM (not active) | –
9 | O=C(C[n+]1ccccc1)NNc1ccccc1 | – | – | – | AC50 [4]: 1.47 µM (active)
10 | CCSc1nnc(-c2ccc(S(=O)(=O)NCc3cccs3)cc2)o1 | – | – | > 195 µM (not active) | –
11 | Cc1ccccc1NS(=O)(=O)c1cc2c(cc1C)NC(=O)CO2 | – | – | – | EC50 [5]: > 53 µM (inactive)
12 | Cc1cc(NC(=O)COc2coc(CN3CCN(c4ccccc4F)CC3)cc2=O)no1 | – | – | > 195 µM (not active) | –
13 | C=C(C)C(=O)NC1=NN(c2ccccc2)C(=O)C1 | 3.66 µM (active) | 37 µM (active) | – | –
14 | c1ccc(CCNCc2cccs2)cc1 | > 380 µM (inactive) | > 380 µM (inactive) | – | –
15 | Clc1ccc(C2=C3CCCCn4c(-c5ccccc5)c[n+](c43)C2)cc1 | > 380 µM (inactive) | 50 µM (active) | – | AC50 (Cytochrome P450 2C19): 1.12 µM (inconclusive); AC50 (Cytochrome P450 1A2): 12.6 µM (inconclusive)
16 | COc1ccc(OC)c(-c2cc(-c3cccnc3)nc(N)c2C#N)c1 | – | – | – | AC50 [4]: 0.766 µM (active)
17 | N#CCc1nn(-c2ccccc2)c2ncnc(N)c12 | – | – | 30.8 µM (active) | –
18 | O=S1(=O)N[C@H](c2ccccc2)C[C@H](c2ccc(C(F)(F)F)cc2)O1 | – | – | > 195 µM (not active) | –
19 | COc1ccc(/C=C/C(=O)c2ccncc2)c2ccccc12 | > 120 µM (inactive) | 8.84 µM (active) | – | AC50 [4]: 11.8 µM (active); AC50 (INS1): 26.7 µM (active)
20 | CC1Cc2cc(C(=O)C3=C(O)C(=O)N(CC4CCCO4)C3c3ccco3)ccc2O1 (stereo not given) | – | – | 69.9 µM (active) | –
21 | CCC1Sc2ccc(S(=O)(=O)Nc3ccc(OC)cc3)cc2NC1=O (stereo not given) | – | – | > 195 µM (not active) | –
22 | O=C(Nc1cccnc1)c1coc(=O)c2ccccc12 | – | – | > 195 µM (not active) | –
23 | CCc1c(C)sc(NC(=O)/C=C/c2ccc3c(c2)OCO3)c1C(=O)OC | – | – | – | AC50 [4]: 0.768 µM (active)
24 | CCOC(=O)c1ccc(NC(=O)N2CCN(S(C)(=O)=O)CC2)cc1 | – | – | > 195 µM (not active) | –
25 | Cc1ccc(C(c2c(C)n[nH]c2O)c2c(C)n[nH]c2O)cc1 | 0.36 µM (active) | 0.248 µM (active) | – | –
26 | COc1ccc(Cl)cc1C(=O)NCC(=O)OCc1ccccc1 | – | – | > 195 µM (not active) | –
27 | CN(C)c1ccc(/C=N\Nc2nc(O)cc(-c3ccccc3)n2)cc1 | – | – | > 195 µM (not active) | –
28 | Cc1ccc(/N=C2\C(Cl)=C(O)OC2OC(=O)c2ccco2)cc1C (stereo not given) | 11.5 µM (active) | 8.65 µM (active) | – | –
29 | Cc1ccc(Sc2oc(/C=N/n3cnnc3)cc2Br)cc1 | 4.42 µM (active) | 9.82 µM (active) | – | –
